Experimental data taken from the supplement of paper PMC10307832.

Experiments:
R406 + Trametinib = compound: COc1cc(Nc2ncc(F)c(Nc3ccc4c(n3)NC(=O)C(C)(C)O4)n2)cc(OC)c1OC [R406] + CC(=O)Nc1cccc(-n2c(=O)n(C3CC3)c(=O)c3c(Nc4ccc(I)cc4F)n(C)c(=O)c(C)c32)c1 [Trametinib] (partner 0.02 µM); assay: relative viability (nuclei count vs DMSO), 5 days (fraction); higher = more cells survive
In short: (§1)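 Each reported value is a median over duplicate plates. It expresses relative viability: treated-well nuclei count divided by vehicle-well nuclei count. Lung cancer cell lines in 1536-well plates were dosed by pin tool a day after seeding, alone with one drug or with a fixed anchor-drug dose plus five library-drug doses (not always all listed) in √10 steps, and nuclei were counted after 5 days.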

Daporinad + Dasatinib = compound: O=C(/C=C/c1cccnc1)NCCCCC1CCN(C(=O)c2ccccc2)CC1 [Daporinad] + Cc1nc(Nc2ncc(C(=O)Nc3c(C)cccc3Cl)s2)cc(N2CCN(CCO)CC2)n1 [Dasatinib] (partner 0.075 µM); assay: as above
In short: as §1

| Cell Line | relative viability (R406 + Trametinib; first compound 0.08 µM) | relative viability (R406 + Trametinib; first compound 0.253 µM) | relative viability (R406 + Trametinib; first compound 0.8 µM) | relative viability (R406 + Trametinib; first compound 2.53 µM) | relative viability (R406 + Trametinib; first compound 8 µM) | relative viability (Daporinad + Dasatinib; first compound 0.0005 µM) | relative viability (Daporinad + Dasatinib; first compound 0.001581 µM) | relative viability (Daporinad + Dasatinib; first compound 0.005 µM) | relative viability (Daporinad + Dasatinib; first compound 0.01581 µM) |
| --- | --- | --- | --- | --- | --- | --- | --- | --- | --- |
| HCC-44 | 1.04 | 1.1 | 1.12 | 0.984 | 0.966 | – | – | – | – |
| HCC-827 | 0.564 | 0.578 | 0.517 | 0.399 | 0.383 | 0.399 | 0.283 | 0.294 | 0.344 |
| NCI-H2342 | 0.724 | 0.841 | 0.8 | 0.753 | 0.844 | 0.316 | 0.299 | 0.339 | 0.295 |
| NCI-H2347 | 0.304 | 0.285 | 0.282 | 0.244 | 0.255 | 0.326 | 0.308 | 0.342 | 0.299 |
| PC-3 [JPC-3] | 0.801 | 0.738 | 0.81 | 0.669 | 0.475 | 0.928 | 1.01 | 0.943 | 0.947 |
| NCI-H1651 | 0.75 | 0.821 | 0.843 | 0.852 | 0.831 | 0.419 | 0.433 | 0.439 | 0.446 |
| HARA | 0.745 | 0.629 | 0.878 | 0.794 | 0.13 | 0.3 | 0.285 | 0.284 | 0.339 |
| NCI-H1650 | 0.604 | 0.585 | 0.633 | 0.054 | 0.124 | 0.379 | 0.366 | 0.325 | 0.247 |
| NCI-H1395 | 0.979 | 1.02 | 0.998 | 0.687 | 0.568 | 0.361 | 0.464 | 0.419 | 0.422 |
| NCI-H441 | 0.462 | 0.452 | 0.539 | 0.283 | 0.184 | 0.665 | 0.614 | 0.618 | 0.662 |
| LU99A | 0.532 | 0.522 | 0.56 | 0.458 | 0.358 | 0.539 | 0.492 | 0.708 | 0.547 |
| NCI-H1355 | 0.456 | 0.45 | 0.406 | 0.384 | 0.327 | 0.664 | 0.674 | 0.671 | 0.761 |
| HCC-78 | 0.757 | 0.687 | 0.749 | 0.504 | 0.424 | 0.363 | – | 0.328 | 0.379 |
| NCI-H1563 | – | – | – | – | – | 0.43 | 0.423 | 0.497 | 0.458 |
| HCC-15 | 0.392 | 0.385 | 0.406 | 0.415 | 0.331 | 0.62 | 0.707 | 0.686 | 0.837 |
| EKVX | 0.405 | 0.383 | 0.348 | 0.364 | 0.264 | 0.47 | 0.535 | 0.619 | 0.838 |
| NCI-H2087 | 0.227 | 0.218 | 0.197 | 0.194 | 0.156 | 0.787 | 1.17 | 0.934 | 0.923 |
| LK-2 | 0.675 | 1 | 0.718 | 0.706 | 0.447 | 0.266 | 0.343 | 0.33 | 0.193 |
| NCI-H1437 | 0.547 | 0.657 | 0.637 | 0.487 | 0.295 | 0.342 | 0.47 | 0.4 | 0.415 |

| Cell Line | relative viability (R406 + Trametinib; first compound 0.08 µM) | relative viability (R406 + Trametinib; first compound 0.253 µM) | relative viability (R406 + Trametinib; first compound 0.8 µM) | relative viability (R406 + Trametinib; first compound 2.53 µM) | relative viability (R406 + Trametinib; first compound 8 µM) | relative viability (Daporinad + Dasatinib; first compound 0.0005 µM) | relative viability (Daporinad + Dasatinib; first compound 0.001581 µM) | relative viability (Daporinad + Dasatinib; first compound 0.005 µM) | relative viability (Daporinad + Dasatinib; first compound 0.01581 µM) |
| --- | --- | --- | --- | --- | --- | --- | --- | --- | --- |
| COR-L23 | 0.627 | 0.669 | 0.682 | 0.217 | 0.338 | 0.541 | 0.575 | 0.38 | 0.183 |
| ABC-1 | – | – | – | – | – | 0.481 | 0.595 | 0.511 | 0.42 |
| SK-MES-1 | 0.561 | 0.531 | 0.553 | 0.304 | 0.218 | 0.417 | 0.474 | 0.315 | 0.437 |
| PC-14 | 0.777 | 0.898 | 0.857 | 0.628 | 0.11 | 0.276 | 0.315 | 0.293 | 0.363 |
| SW 900 | 0.958 | 0.805 | 0.906 | 0.764 | 0.118 | 0.53 | 0.574 | 0.716 | 0.436 |
| A-427 | 0.755 | 0.745 | 0.857 | 0.62 | 0.541 | 0.613 | 0.841 | 0.618 | 0.338 |
| NCI-H1792 | 0.428 | 0.443 | 0.427 | 0.178 | 0.0999 | 0.617 | 0.815 | 0.477 | 0.921 |
| LCLC-97TM1 | 0.218 | 0.23 | 0.226 | 0.174 | 0.194 | 0.77 | 0.89 | 0.865 | 0.844 |
| LCLC-103H | 0.66 | 0.675 | 0.672 | 0.691 | 0.604 | 0.546 | 0.411 | 0.465 | 0.502 |
| RERF-LC-KJ | 0.833 | 0.918 | 1 | 0.753 | 0.715 | 0.757 | 0.804 | 0.975 | 0.804 |
| BEN | 0.974 | 0.992 | 1.24 | 1.17 | 0.897 | 0.316 | 0.251 | 0.318 | 0.414 |
| NCI-H1666 | 0.901 | 0.866 | 0.943 | 0.955 | 0.679 | 0.746 | 0.871 | 0.674 | 0.721 |
| LC-2-ad | 0.912 | 0.907 | 0.971 | 0.465 | 0.334 | 0.622 | 0.539 | 0.68 | 0.765 |
| SW 1573 | 0.548 | 0.614 | 0.628 | 0.443 | 0.193 | 0.339 | 0.801 | 0.446 | 0.367 |
| ChaGo-K-1 | 0.853 | 0.962 | 0.982 | 0.844 | 0.763 | 0.672 | 0.5 | 0.476 | 0.278 |
| COR-L 105 | 0.444 | 0.497 | 0.432 | 0.459 | 0.395 | 0.317 | 0.376 | 0.346 | 0.416 |
| NCI-H1975 | 0.315 | 0.307 | 0.287 | 0.112 | 0.201 | 0.336 | 0.364 | 0.356 | 0.38 |
| NCI-H1993 | 0.442 | 0.542 | 0.518 | 0.679 | 0.573 | 0.548 | 0.481 | 0.664 | 0.676 |
